Measurements published in ChEMBL document CHEMBL1201862, “PubChem BioAssay data set” (2004).
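Grown in 96-well plates, cells were treated for 48 hours with each compound at five concentrations. Insufficient inhibition: endpoint recorded as highest concentration tested. At the GI50, growth is halved.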 Activity calls are given as the source filed them. Cut-off read from the data, not from the text of the source: active = GI50 up to about 1.1 µM and inactive = higher.

Key:
Assay in all cases: NCI anticancer screen, dose series, 48 h
[1] = tested on: MDA-MB-231
[2] = tested on: MDA-N
[3] = tested on: SNB-78
[4] = tested on: KM-20L2
[5] = tested on: DLD-1
[6] = tested on: XF498
[7] = tested on: HOP-18
[8] = tested on: LXFL 529

## COc1ccc2c(c1)CCCc1c-2nc2ccccc2c1N
[1]
  GI50: 5.7 µM (inactive)
[2]
  GI50: 10.3 µM (inactive)

## C=C[C@H]1CN2CCc3c([nH]c4c([C@@H]5CCCN5C)c(O)ccc34)[C@@H]2C[C@@H]1C[C@H]1c2[nH]c3ccccc3c2CCN1C
[1]
  GI50: 1.63 µM (inactive)
[2]
  GI50: 0.49 µM (active)

## O=NN(CCF)C(=O)NC1CCSCC1
[3]
  GI50: > 100 µM (inactive)
[4]
  GI50: > 100 µM (inactive)
[5]
  GI50: > 100 µM (inactive)
[6]
  GI50: < 0.01 µM (active)
[7]
  GI50: > 100 µM (inactive)

## CCCCCCCCCCCCCCCCOCC(O)CO (stereo unspecified)
[1]
  GI50: 18.5 µM (inactive)
[2]
  GI50: 25.7 µM (inactive)

## CC1CC2=Nc3ccccc3NC(c3ccccc3)C2=C(O)O1 (stereo unspecified)
[3]
  GI50: > 100 µM (inactive)
[4]
  GI50: > 100 µM (inactive)
[5]
  GI50: > 100 µM (inactive)
[8]
  GI50: > 100 µM (inactive)
[7]
  GI50: > 100 µM (inactive)

## O=[N+]([O-])c1ccc(Nc2nc3ccccc3s2)cc1
[1]
  GI50: 18 µM (inactive)

## Cc1c(CNc2ccc(C(=O)NC(CCCNC(=O)c3ccccc3C(=O)O)C(=O)O)cc2)cnc2nc(N)nc(N)c12 (stereo unspecified)
[1]
  GI50: 3.23 µM (inactive)
[2]
  GI50: 0.001 µM (active)

## COc1nc(O)c(N)c(NC2OC(CO)C(O)C(O)C2O)n1 (stereo unspecified)
[3]
  GI50: > 100 µM (inactive)
[4]
  GI50: > 100 µM (inactive)
[5]
  GI50: > 100 µM (inactive)
[6]
  GI50: > 100 µM (inactive)
[7]
  GI50: > 100 µM (inactive)

## CCN(CC)C(=S)N/N=C(\C)c1cccc(C)n1
[1]
  GI50: < 0.01 µM (active)
[2]
  GI50: 0.474 µM (active)

## CCC(C(C)N1CC(=O)NC(=O)C1)N1CC(=O)NC(=O)C1 (stereo unspecified)
[3]
  GI50: > 66.4 µM (inactive)
[4]
  GI50: > 69.2 µM (inactive)
[5]
  GI50: > 31.3 µM (inactive)
[6]
  GI50: 14.5 µM (inactive)
[7]
  GI50: > 100 µM (inactive)

## COc1ccccc1C1C(C(=O)O)=C(CO)Oc2cc3c(cc21)OCO3 (stereo unspecified)
[3]
  GI50: > 100 µM (inactive)
[4]
  GI50: > 100 µM (inactive)
[8]
  GI50: > 100 µM (inactive)
[7]
  GI50: > 100 µM (inactive)

## CN(C)C(=S)SCc1ccccc1
[1]
  GI50: 99.1 µM (inactive)
[2]
  GI50: > 100 µM (inactive)

## CCCCSCC(NC(=O)/C=C/c1c(C)[nH]c(=O)[nH]c1=O)C(=O)OC (stereo unspecified)
[3]
  GI50: 47 µM (inactive)
[4]
  GI50: 61.7 µM (inactive)
[5]
  GI50: 54.8 µM (inactive)
[7]
  GI50: 61.2 µM (inactive)

## C[N+](C)(N)c1nc(N)c(C#N)c(C#N)c1C#N
[1]
  GI50: > 10 µM (inactive)
[2]
  GI50: > 10 µM (inactive)

## CC1C/C(=C\c2ccc(O)c(O)c2)C(=O)/C(=C/c2ccc(O)c(O)c2)C1 (stereo unspecified)
[1]
  GI50: 11.3 µM (inactive)
[2]
  GI50: 4.69 µM (inactive)

## S=C(NCc1ccccn1)N/N=C/c1ccccn1
[1]
  GI50: < 0.01 µM (active)
[2]
  GI50: 0.454 µM (active)

## O=S(=O)(OI(O)CC(F)(F)F)C(F)(F)F
[1]
  GI50: > 100 µM (inactive)

## Cn1cc(C(=O)c2nccc3c2cnc2ccccc23)ccc1=O
[1]
  GI50: > 100 µM (inactive)
[2]
  GI50: > 100 µM (inactive)

## N=C(N)NS(=O)(=O)c1ccc(Nc2c3ccccc3nc3c(C(=O)NCCO)cccc23)cc1
[1]
  GI50: 0.207 µM (active)
[2]
  GI50: 0.267 µM (active)

## Brc1sc(Br)c2c1[C@H](Br)C[C@@H]2Br
[1]
  GI50: 31.1 µM (inactive)
[2]
  GI50: 38.1 µM (inactive)

## CC(=O)c1cc(I)c(O)c2ncccc12
[1]
  GI50: 2.55 µM (inactive)
[2]
  GI50: 5.02 µM (inactive)

## Cc1oc(N)c(S(=O)(=O)c2cc3ccccc3[n+]([O-])c2N)c1C
[1]
  GI50: > 100 µM (inactive)
[2]
  GI50: > 100 µM (inactive)

## Cc1cc(C(C)(C)C)cc(Cc2cc(C(C)(C)C)cc(Cc3cc(C(C)(C)C)cc(C)c3O)c2O)c1O
[3]
  GI50: 4.98 µM (inactive)
[4]
  GI50: 16.1 µM (inactive)
[5]
  GI50: 6.05 µM (inactive)
[8]
  GI50: 8.04 µM (inactive)
[6]
  GI50: 1.65 µM (inactive)
[7]
  GI50: 15.4 µM (inactive)

## Cc1ccc(S(=O)(=O)N/N=C2/C3CCC(C3)C2c2ccccc2)cc1 (stereo unspecified)
[2]
  GI50: > 100 µM (inactive)

## Cc1ccc(C(=O)N/N=C(\N=N\c2cccc([N+](=O)[O-])c2)c2ccc(N(CCC#N)CCC#N)cc2C)cc1
[1]
  GI50: 30.5 µM (inactive)
[2]
  GI50: 25.1 µM (inactive)

## C/C(CC1C2CCCC1C2)=N\NC(N)=O (stereo unspecified)
[1]
  GI50: > 100 µM (inactive)
[2]
  GI50: > 100 µM (inactive)

## CN(C)CCCCN1c2ccccc2Sc2ccc(N=[N+]=[N-])cc21
[1]
  GI50: 7.28 µM (inactive)
[2]
  GI50: 1.82 µM (inactive)

## O=C1NC(=O)/C(=C/c2ccc(S(=O)(=O)N/N=C/c3ccccc3)cc2)N1
[1]
  GI50: > 100 µM (inactive)
[2]
  GI50: > 100 µM (inactive)

## O=C(NCCNCCCNC(=O)c1cc(-c2ccccc2)nc2ccccc12)c1cccc(OCc2ccccc2)c1OCc1ccccc1
[1]
  GI50: 1.71 µM (inactive)
[2]
  GI50: 1.66 µM (inactive)

## CCCCN(CCCC)C(=O)C(=O)C(C#N)c1ccc(C)cc1 (stereo unspecified)
[3]
  GI50: > 100 µM (inactive)
[4]
  GI50: > 100 µM (inactive)
[5]
  GI50: > 100 µM (inactive)
[8]
  GI50: > 100 µM (inactive)
[6]
  GI50: > 100 µM (inactive)
[7]
  GI50: > 100 µM (inactive)

## CN1C(=O)NC2(O)c3ccccc3C(=O)C12O (stereo unspecified)
[3]
  GI50: > 100 µM (inactive)
[4]
  GI50: > 100 µM (inactive)
[5]
  GI50: > 100 µM (inactive)
[8]
  GI50: > 100 µM (inactive)
[6]
  GI50: > 100 µM (inactive)
